This assay deals with T1, Recombinant human cathepsin K (Homo sapiens, UniProt P43235).
T1 construct: made in house
T1 sequence (P43235 115-329): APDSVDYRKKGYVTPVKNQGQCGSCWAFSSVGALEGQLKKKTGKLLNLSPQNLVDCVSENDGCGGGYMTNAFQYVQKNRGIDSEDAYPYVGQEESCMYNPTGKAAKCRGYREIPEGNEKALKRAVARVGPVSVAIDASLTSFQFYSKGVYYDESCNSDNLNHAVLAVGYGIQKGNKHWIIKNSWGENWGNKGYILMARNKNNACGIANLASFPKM
The assay can be described thus: Inhibition of cathepsin K activity (Z-Phe-Arg-AMC fluorescence assay). It counts as biochemical. The conditions noted are these: 25 uM Z-Phe-Arg-AMC, pH 5.5, 1 hour at 37° C. The protocol:
Test 1: Inhibition of Cathepsin K Activity
Recombinant human cathepsin K was prepared in accordance with Biol, Pharm. Bull, 19(8), 1026-1031 (1996) and J. Biol. Chem. 271, 2126-2132 (1996). Stock solutions of 2.5 mM Z-Phe-Arg-AMC (BACHEM, 1-1160) and all inhibitors were prepared in dimethyl sulfoxide. In vitro assays for cathepsin K were conducted with 25 uM Z-Phe-Arg-AMC as a substrate at pH 5.5 in 100 mM Na acetate buffer containing 20 mM cysteine and 5 mM EDTA in the presence of 2% final concentration of DMSO. Reaction was initiated by the addition of enzyme to samples, which were then incubated for 1 hour at 37° C. The fluorescence was monitored at 460 nm (excitation wavelength 360 nm) using fluorescence plate reader.
The concentrations of the test compounds, which inhibit 50% of cathepsin K activity, are represented as IC50 in Table 1.

Structures can show the parent of a compound that is named as a salt.

This passage reports IC50 results from patent US7342027B2 (Yuhan Corporation, priority 2002, dated 2008).

As to `CS(=O)(=O)c1c(F)cccc1N1CCC(NC(=O)C2(NC(=O)c3ccco3)CCCCC2)C(=O)C1` (stereo not shown) [Example 77, 4-[N-[1-[N-(furan-2-ylcarbonyl)amino]cyclohexanecarbonyl]amino]-1-(3-fluoro-2-methylsulfonylphenyl)piperidin-3-one], the IC50 was 5.97 nM.
For `CC[S+]([O-])c1ccccc1N1CCC(NC(=O)C2(NC(=O)c3cc4ccccc4o3)CCCCC2)C(=O)C1` (stereo not shown) [Example 69], the IC50 came to 1.59 nM.
For `O=C(NC1(C(=O)NC2CCN(c3ccc(Cl)cc3F)CC2=O)CCCCC1)c1cc2ccccc2s1` (stereo not shown) [Example 131, 4-[N-[1-[N-(benzothiophen-2-ylcarbonyl)amino]cyclohexanecarbonyl]amino]-1-(4-chloro-2-fluoro-phenyl)piperidin-3-one], the IC50 worked out at 4.11 nM.
For the compound `CC1(C)CN(c2cc(F)ccc2N2CCC(NC(=O)C3(NC(=O)c4ccco4)CCCCC3)C(=O)C2)C1=O` (stereo not shown) [Example 92, 4-[N-[1-[N-(furan-2-ylcarbonyl)amino]cyclohexanecarbonyl]amino]-1-[4-fluoro-2-(3,3-dimethylazetidin-2-one-1-yl)phenyl]piperidin-3-one], the IC50 stood at 1.45 nM.
For the compound `CC(=O)Nc1ccccc1N1CCC(NC(=O)C2(NC(=O)c3cc4ccccc4o3)CCCCC2)C(=O)C1` (stereo not shown) [Example 56, 4-[N-[1-[N-(benzofuran-2-ylcarbonyl)amino]cyclohexanecarbonyl]amino]-1-[2-[N-(acetyl)amino]phenyl]piperidin-3-one], the concentration for half-maximal inhibition (IC50) was determined as 1.62 nM.
As for `N#Cc1ccc(N2CCC(NC(=O)C3(NC(=O)c4cc5ccccc5o4)CCCCC3)C(=O)C2)cc1` (stereo not shown) [Example 7, 4-[N-[1-[N-(benzofuran-2-ylcarbonyl)amino]cyclohexanecarbonyl]amino]-1-(4-cyanophenyl)piperidin-3-one], the IC50 was 6.24 nM.
With `CS(=O)(=O)c1ccc(F)cc1N1CCC(NC(=O)C2(NC(=O)c3ccc(Cl)s3)CCCCC2)C(=O)C1` (stereo not shown) [Example 117, 4-[N-[1-[N-(5-chloro-thiophen-2-ylcarbonyl)amino]cyclohexanecarbonyl]amino]-1-(5-fluoro-2-methanesulfonylphenyl)piperidin-3-one], the IC50 amounted to 2.13 nM.
As for `CCS(=O)(=O)c1ccccc1N1CCC(NC(=O)C2(NC(=O)c3cc(C)on3)CCCCC2)C(=O)C1` (stereo not shown) [Example 107, 4-[N-[1-[N-(5-methyl-isoxazol-3-ylcarbonyl)amino]cyclohexanecarbonyl]amino]-1-(2-ethanesulfonylphenyl)piperidin-3-one], the IC50 was determined as 8.07 nM.
As to `Cc1occc1C(=O)NC1(C(=O)NC2CCN(c3ccccc3S(C)(=O)=O)CC2=O)CCCCC1` (stereo not shown) [Example 122, 4-[N-[1-[N-(2-methyl-furan-3-ylcarbonyl)amino]cyclohexanecarbonyl]amino]-1-(2-methanesulfonylphenyl)piperidin-3-one], the IC50 was found to be 3.87 nM.
The figure for `CCN(CC)c1ccc(C(=O)NC2(C(=O)NC3CCN(c4ccc(F)cc4S(C)(=O)=O)CC3=O)CCCCC2)cc1` (stereo not shown) [Example 174, 4-[N-[1-[N-(4-(diethylamino)benzoyl)amino]cyclohexanecarbonyl]amino]-1-(4-fluoro-2-methanesulfonylphenyl)piperidin-3-one hydrochloride] is 1 nM; for `CCOc1ccccc1N1CCC(NC(=O)C2(NC(=O)c3cc4ccccc4o3)CCCCC2)C(=O)C1` (stereo not shown) [Example 27, 4-[N-[1-[N-(benzofuran-2-ylcarbonyl)amino]cyclohexanecarbonyl]amino]-1-(2-ethoxyphenyl)piperidin-3-one] it is 8.07 nM.
For `CS(=O)(=O)Nc1cc(F)ccc1N1CCC(NC(=O)C2(NC(=O)c3ccc(OCCN4CCOCC4)cc3)CCCCC2)C(=O)C1` (stereo not shown) [Example 169, 4-[N-[1-[N-(4-(2-morpholinethoxy)benzoyl)amino]cyclohexanecarbonyl]amino]-1-(4-fluoro-2-methanesulfonylaminophenyl)piperidin-3-one], the half-inhibitory concentration (IC50) was found to be 0.58 nM.
Turning to `CC(C)[S+]([O-])c1ccccc1N1CCC(NC(=O)C2(NC(=O)c3cc4ccccc4o3)CCCCC2)C(=O)C1` (stereo not shown) [Example 70, 4-[N-[1-[N-(benzofuran-2-ylcarbonyl)amino]cyclohexanecarbonyl]amino]-1-(2-isopropylsulfinylphenyl)piperidin-3-one], the IC50 was found to be 1.73 nM.
`CN(C)c1ccc(C(=O)NC2(C(=O)NC3CCN(c4ccc(F)cc4S(C)(=O)=O)CC3=O)CCCCC2)cc1` (stereo not shown) [Example 173, 4-[N-[1-[N-(4-(dimethylamino)benzoyl)amino]cyclohexanecarbonyl]amino]-1-(4-fluoro-2-methanesulfonylphenyl)piperidin-3-one hydrochloride]: the IC50 turned out to be 1.59 nM.
For `CC1(C)CN(c2ccccc2N2CCC(NC(=O)C3(NC(=O)c4cc5ccccc5o4)CCCCC3)C(=O)C2)C1=O` (stereo not shown) [Example 43, 4-[N-[1-[N-(benzofuran-2-ylcarbonyl)amino]cyclohexanecarbonyl]amino]-1-[2-(3,3-dimethylazetidin-2-one-1-yl)phenyl]piperidin-3-one], the IC50 stood at 4.97 nM.
As for `COC(=O)Nc1ccccc1N1CCC(NC(=O)C2(NC(=O)c3cc4ccccc4o3)CCCCC2)C(=O)C1` (stereo not shown) [Example 49, 4-[N-[1-[N-(benzofuran-2-ylcarbonyl)amino]cyclohexanecarbonyl]amino]-1-[2-[N-(methoxycarbonyl)amino]phenyl]piperidin-3-one], the IC50 worked out at 0.45 nM.
As for `Cc1c(C(=O)NC2(C(=O)NC3CCN(c4cc(F)ccc4C(F)(F)F)CC3=O)CCCCC2)oc2ccccc12` (stereo not shown) [Example 134, 4-[N-[1-[N-(3-methyl-benzofuran-2-ylcarbonyl)amino]cyclohexanecarbonyl]amino]-1-(5-fluoro-2-trifluoromethylphenyl)piperidin-3-one], the IC50 was 6.09 nM.
The figure for `Cc1ccc(C(=O)NC2(C(=O)NC3CCN(c4ccccc4S(C)(=O)=O)CC3=O)CCCCC2)o1` (stereo not shown) [Example 123, 4-[N-[1-[N-(5-methyl-furan-2-ylcarbonyl)amino]cyclohexanecarbonyl]amino]-1-(2-methanesulfonylphenyl)piperidin-3-one] is 4.97 nM.
Under `O=C(NC1(C(=O)NC2CCN(c3ccccc3Br)CC2=O)CCCCC1)c1cc2ccccc2o1` (stereo not shown) [Example 35, 4-[N-[1-[N-(benzofuran-2-ylcarbonyl)amino]cyclohexanecarbonyl]amino]-1-(2-bromophenyl)piperidin-3-one] stands 2.35 nM; under `O=C(NC1(C(=O)NC2CCN(c3ccccc3N3CCOCC3)CC2=O)CCCCC1)c1cc2ccccc2o1` (stereo not shown) [Example 26, 4-[N-[1-[N-(benzofuran-2-ylcarbonyl)amino]cyclohexanecarbonyl]amino]-1-[2-(4-morpholino)phenyl]piperidin-3-one], 19.9 nM; under `CC(C)(C)OC(=O)c1ccccc1N1CCC(NC(=O)C2(NC(=O)c3cc4ccccc4s3)CCCCC2)C(=O)C1` (stereo not shown) [Example 129, 4-[N-[1-[N-(benzothiophen-2-ylcarbonyl)amino]cyclohexanecarbonyl]amino]-1-(2-tert-butoxycarbonylphenyl)piperidin-3-one], 0.45 nM.
As for `O=Cc1c(Cl)cccc1N1CCC(NC(=O)C2(NC(=O)c3cc4ccccc4o3)CCCCC2)C(=O)C1` (stereo not shown) [Example 19, 4-[N-[1-[N-(benzofuran-2-ylcarbonyl)amino]cyclohexanecarbonyl]amino]-1-(3-chloro-2-formylphenyl)piperidin-3-one], the IC50 was 4.41 nM.

What is called IC50 is the concentration needed to halve the response being measured.
